Results on two compounds are retold here after US7524887B2, “2-amino-1,3-propanediol compounds for the treatment of acute pain” (Sanofi-Aventis Deutschland GmbH, priority 2003, dated 2009).

The subject of experiment [1] is Sprague Dawley rats (formalin model of acute pain). The experiment is described as follows: Formalin test after intrathecal application of S1P. The following applies: for Mean flinches in 5 min interval: 20 μl of 10 μM S1P intrathecal 15 min prior to formalin, mean of six animals. The class given is in vivo, rat. As to the method: The analgesic effect of sphingosine-1-phosphate (S1P) was determined by intrathecal application to the spinal cord by:
Wild type Sprague Dawley rats were purchased from Charles River Wiga GmbH (Sulzfeld, Germany). The animals had free access to food and water prior to the experiments. They were maintained in climate- and light-controlled rooms (24+0.5° C.). Each animal was used at one occasion only. In all experiments the ethics guidelines for investigations in conscious animals were obeyed, and the procedures were approved by the local Ethics Committee.
Rats were anesthetized with ketamine (60 mg/kg i.p.) and midazolam (0.5 to 1 mg/kg i.p.). The skin was incised above the vertebral column from vertebrae Th13 up to L3. Muscle tissue around L2-3 was cleared away. The processus spinosus of L3 was removed and a laminectomy was done at L2. Polyethylene catheters (ID 0.28 mm, OD 0.61 mm) were then inserted into the peridural space so that the tip of the catheter reached Th9-10. The catheter was fixed with cyanacrylate glue and was externalized in the neck region and the skin was sutured.
Three days after surgery rats were placed into a “freely moving system” (CMA, Stockholm, Sweden) 20 μl of 10 μM S1P, purchased from Tocris (Ellisville, Mo.), were infused through the catheter.
Within 15 min after stopping the infusion the formalin test was performed. 50 μL of a 5% formaldehyde solution were injected subcutaneously (s. c.) into the dorsal surface of one hind paw. Flinches were counted in one-minute intervals up to 60 min starting right after formalin injection. Flinches of 5 min intervals were summarized as mean flinches per minute. To compare the nociceptive behavior between groups the sum of flinches during the one-hour observation period were submitted to the Students t-test.
S1P was dissolved in DMSO to a final concentration of 2.5 mM and then diluted 1:250 in PBS. 20 μl of 10 μM S1P or 20 μl 0.1 M phosphate buffered saline, pH 7.2 (PBS,) in DMSO were given to adult rats by intrathecal application 15 minutes prior to the formalin injection. Then, flinches were counted in 5 minutes intervals over a period of 60 minutes.

Experiment [2] shares this test system. Put plainly: Formalin test after interperitoneal injection of compound 1. It counts as in vivo, rat. The following applies: for Mean flinches in 5 min interval: 1 mg/kg interperitoneally in PEG 3 hours prior to formalin, n = 5 rats. As to the method: Animals: Male Sprague Dawley rats weighing 300-350 g were purchased from Charles River Wiga GmbH (Sulzfeld, Germany). The animals had free access to food and water prior to the experiments. They were maintained in climate- and light-controlled rooms (24+0.5° C.). Each animal was used at one occasion only. In all experiments the ethics guidelines for investigations in conscious animals were obeyed and the procedures were approved by the local Ethics Committee. Formalin test: The formalin assay was performed in a dedicated room with restriction on sound level and activity. 2-amino-2-[2-(4-octylphenyl)ethyl]-1,3-propanediol hydrochloride (compound 1) was dissolved in polyethylene-glycol (PEG) at a concentration of 1 mg/ml and injected interperitoneally (1 mg/kg) 3 hours prior to the formalin tests were performed with compound 1. 50 μl of a 5% formaldehyde solution was injected subcutaneously (s.c.) into the dorsal surface of one hind paw. Rats were placed into a plexiglas chamber surrounded by mirrors to allow an unobstructed view of the paws. Flinches were counted in one-minute intervals up to 60 min starting right after formalin injection. Flinches of 5 min intervals were summarized as mean flinches per minute +SEM. Statistical analysis was performed using the student's t-test (*p<0.04).

The structures appear in SMILES notation.

Turning to `CCCCCCCCCCCCC/C=C/[C@@H](O)[C@@H](N)COP(=O)(O)O` [Compound S1P, sphingosine-1-phosphate], in experiment [1] (phase 2A = 20 to 35 minutes after formalin injection, 20 μl of 10 μM S1P intrathecal), the “Number of nociceptive responses for phase 2A compared to PBS/DMSO-treated animals” value is “significant decrease”. For the same compound, the “Mean flinches in 5 min interval” value turned out to be 60.9 in experiment [1] (time 5 min after formalin); 24.6 in experiment [1] (time 10 min after formalin); 12.7 in experiment [1] (time 15 min after formalin); 17.1 in experiment [1] (time 20 min after formalin); 19.6 in experiment [1] (time 25 min after formalin); 24.7 in experiment [1] (time 30 min after formalin). Further, the “Mean flinches in 5 min interval” value in experiment [1] (time 35 min after formalin) was 31.4; in experiment [1] (time 40 min after formalin), 41.9; in experiment [1] (time 45 min after formalin) it was 49.3; in experiment [1] (time 50 min after formalin), 41.3; in experiment [1] (time 55 min after formalin), 49.0; in experiment [1] (time 60 min after formalin) it was 38.0.
As for `CCCCCCCCc1ccc(CCC(N)(CO)CO)cc1.Cl` [Compound 1, 2-amino-2-[2-(4-octylphenyl)ethyl]-1,3-propanediol hydrochloride], the “Number of nociceptive responses for phase 2A compared to the control animals” value in experiment [2] (phase 2A = 20 to 35 minutes after formalin injection, 1 mg/kg interperitoneally, student's t-test) is given as “significant decrease”. The “Mean flinches in 5 min interval” value in experiment [2] (time 5 min after formalin) was 85.4; in experiment [2] (time 10 min after formalin) it was 41.2; in experiment [2] (time 15 min after formalin) it was 33.6; in experiment [2] (time 20 min after formalin), 29.6; in experiment [2] (time 25 min after formalin), 31.6; in experiment [2] (time 30 min after formalin), 51.4. Besides, the “Mean flinches in 5 min interval” value was determined as 49.2 in experiment [2] (time 35 min after formalin); 48.0 in experiment [2] (time 40 min after formalin); 48.6 in experiment [2] (time 45 min after formalin); 39.8 in experiment [2] (time 50 min after formalin); 42.6 in experiment [2] (time 55 min after formalin); 42.2 in experiment [2] (time 60 min after formalin).
